{"source": "patent US4455290A", "about": "“Inhibition of fibrin polymerization by a peptide isolated from fibrin Fragment D1” (Research Corporation, priority 1981, dated 1984)", "key": {"[1]": {"experiment": "Elimination from the blood", "assay_type": "in vivo", "conditions": "no method described"}, "[2]": {"target": "T1, Fragment D1 (Homo sapiens, UniProt P02671+P02675+P02679)", "T1 construct": "consisted of three polypeptide chains of different molecular weights: /α/, 12,000; /β, 43,000; and /γ, 39,000; made in house; host or cells: not recombinant: plasmin (plasminogen + streptokinase) digest of human fibrinogen in calcium, then gel filtration", "T1 sequence (P02671 124-225 limits assumed)": "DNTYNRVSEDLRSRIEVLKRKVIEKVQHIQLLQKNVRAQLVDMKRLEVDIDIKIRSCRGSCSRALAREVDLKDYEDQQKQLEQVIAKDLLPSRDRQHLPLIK", "T1 sequence (P02675 164-491 limits assumed)": "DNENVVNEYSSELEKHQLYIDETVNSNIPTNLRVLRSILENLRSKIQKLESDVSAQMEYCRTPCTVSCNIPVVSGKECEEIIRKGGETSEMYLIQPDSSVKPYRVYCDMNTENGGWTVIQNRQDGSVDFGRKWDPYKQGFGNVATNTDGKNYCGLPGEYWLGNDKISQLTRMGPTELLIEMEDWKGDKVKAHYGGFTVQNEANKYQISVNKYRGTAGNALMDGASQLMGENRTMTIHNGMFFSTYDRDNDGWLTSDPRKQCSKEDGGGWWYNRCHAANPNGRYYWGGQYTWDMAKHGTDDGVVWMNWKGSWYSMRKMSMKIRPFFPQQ", "T1 sequence (P02679 89-437 isoform P02679-2 limits assumed)": "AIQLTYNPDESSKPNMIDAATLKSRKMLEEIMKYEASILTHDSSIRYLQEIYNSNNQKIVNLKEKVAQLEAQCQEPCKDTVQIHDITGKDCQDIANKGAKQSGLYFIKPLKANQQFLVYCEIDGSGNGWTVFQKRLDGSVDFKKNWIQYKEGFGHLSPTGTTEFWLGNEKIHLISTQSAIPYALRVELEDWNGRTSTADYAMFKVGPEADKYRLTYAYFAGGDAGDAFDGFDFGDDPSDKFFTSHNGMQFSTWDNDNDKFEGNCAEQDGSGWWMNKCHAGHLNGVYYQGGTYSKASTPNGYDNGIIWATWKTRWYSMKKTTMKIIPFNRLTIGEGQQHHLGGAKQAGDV", "experiment": "Equilibrium binding of 125-I D1 Peptide, Fragment D1", "description": "Acta 133, 376-379 (1979)."}, "[3]": {"system": "thrombin time", "experiment": "Thrombin time test", "conditions": "stated as 'could be caused'; no experiment described"}, "[4]": {"target": "T2, thrombin fibrin monomer (Homo sapiens, UniProt P02671+P02675+P02679)", "T2 construct": "Thrombin cleaves the bonds Aα16 Arg-17 Gly and Bβ14 Arg-15 Gly, releasing two molecules of fibrinopeptide A and two molecules of fibrinopeptide B; made in house; host or cells: not recombinant: made from fibrinogen by treatment with thrombin", "T2 sequence (P02671 36-629 isoform P02671-2)": "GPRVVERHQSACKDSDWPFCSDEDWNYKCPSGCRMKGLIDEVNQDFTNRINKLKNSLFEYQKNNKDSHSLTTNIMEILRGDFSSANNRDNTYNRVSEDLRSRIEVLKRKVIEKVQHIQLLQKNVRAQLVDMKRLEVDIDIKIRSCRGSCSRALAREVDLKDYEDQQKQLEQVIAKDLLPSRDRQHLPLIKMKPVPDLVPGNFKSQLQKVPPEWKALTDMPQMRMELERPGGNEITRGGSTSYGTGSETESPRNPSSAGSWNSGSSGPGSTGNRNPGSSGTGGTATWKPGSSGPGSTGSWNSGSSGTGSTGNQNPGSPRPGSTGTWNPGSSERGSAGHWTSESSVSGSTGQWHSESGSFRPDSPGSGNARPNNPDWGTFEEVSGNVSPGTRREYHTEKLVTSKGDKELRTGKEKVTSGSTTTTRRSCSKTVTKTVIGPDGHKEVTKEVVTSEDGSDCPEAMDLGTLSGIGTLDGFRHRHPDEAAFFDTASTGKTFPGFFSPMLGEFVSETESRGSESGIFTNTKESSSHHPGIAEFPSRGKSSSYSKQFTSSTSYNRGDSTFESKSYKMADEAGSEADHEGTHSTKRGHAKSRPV", "T2 sequence (P02675 45-491)": "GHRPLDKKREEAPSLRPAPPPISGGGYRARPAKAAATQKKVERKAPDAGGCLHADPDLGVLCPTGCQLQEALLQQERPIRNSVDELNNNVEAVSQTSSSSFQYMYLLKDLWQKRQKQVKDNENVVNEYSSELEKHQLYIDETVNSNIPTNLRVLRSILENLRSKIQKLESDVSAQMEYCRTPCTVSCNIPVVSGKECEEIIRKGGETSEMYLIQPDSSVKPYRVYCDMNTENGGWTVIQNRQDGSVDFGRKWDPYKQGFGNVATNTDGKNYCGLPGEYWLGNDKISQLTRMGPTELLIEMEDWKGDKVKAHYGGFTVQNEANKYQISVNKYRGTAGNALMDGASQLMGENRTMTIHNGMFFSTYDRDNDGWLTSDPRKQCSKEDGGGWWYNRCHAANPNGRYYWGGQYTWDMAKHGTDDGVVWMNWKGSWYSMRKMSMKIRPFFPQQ", "T2 sequence (P02679 27-437 isoform P02679-2)": "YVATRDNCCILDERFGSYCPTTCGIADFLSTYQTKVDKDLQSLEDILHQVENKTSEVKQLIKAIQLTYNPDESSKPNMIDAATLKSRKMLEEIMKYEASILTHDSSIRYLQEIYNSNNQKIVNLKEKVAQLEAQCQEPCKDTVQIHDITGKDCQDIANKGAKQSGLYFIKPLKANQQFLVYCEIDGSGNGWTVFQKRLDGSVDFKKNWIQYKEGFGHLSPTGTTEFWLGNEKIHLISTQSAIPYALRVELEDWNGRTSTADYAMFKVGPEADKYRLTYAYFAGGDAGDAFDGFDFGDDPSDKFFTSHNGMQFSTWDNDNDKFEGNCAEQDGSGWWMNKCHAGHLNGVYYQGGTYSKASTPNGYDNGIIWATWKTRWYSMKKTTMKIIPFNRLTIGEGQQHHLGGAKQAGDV", "experiment": "Inhibition of fibrin monomer polymerization (absorbance at 350 nm), thrombin fibrin monomer", "assay_type": "biochemical", "conditions": "molar excess of D1 Peptide to fibrin monomer of 100-1000 fold; Sephadex gel equilibrium system; kind of fibrin monomer not stated", "method": "Fibrin monomer was prepared according to the method of Belitser et al, Biochem. Biophys. Acta 154, 367-375 (1968) using either thrombin or batroxobin (an enzyme from the venom of Bothrops atrox). The polymerization of fibrin monomer which was formed by batroxobin (lacking fibrinopeptide A) or by thrombin (lacking fibrinopeptides A and B) was inhibited by D1 Peptide. Polymerization was measured spectrophotometrically at 350 nm as has been described in Budzynski, Biochem. Biophys. Acta 584, 284-287 (1979). […] At zero time the recorder was started and 0.01 ml of fibrin monomer (1.5 mg/ml in 0.02M acetic acid) was added, the cells were inverted, and the increase in absorbance at 350 nm was measured continuously for 15 min or until plateau levels were reached. For batroxobin fibrin monomer 0.15 ml of buffer or buffer containing D1 Peptide was mixed with 0.05 ml of batroxobin fibrin monomer (1.5 mg/ml in 0.02M acetic acid). The initial rate of polymerization was calculated from the slope of the steepest part of the curve and expressed as the increase in absorbance per min (A350 ·min^-1)."}}, "note": "Peptide text beside a SMILES is read from it.", "data": [{"smiles": "CC[C@H](C)[C@H](NC(=O)[C@H](CCCCN)NC(=O)[C@H](CCSC)NC(=O)[C@@H](NC(=O)[C@@H](NC(=O)[C@H](CCCCN)NC(=O)[C@H](CCCCN)NC(=O)[C@H](CCSC)NC(=O)[C@H](CO)NC(=O)[C@H](Cc1ccc(O)cc1)NC(=O)[C@H](Cc1c[nH]c2ccccc12)NC(=O)[C@H](CCCNC(=N)N)NC(=O)[C@@H](N)[C@@H](C)O)[C@@H](C)O)[C@@H](C)O)C(=O)N[C@H](C(=O)N1CCC[C@H]1C(=O)N[C@@H](Cc1ccccc1)C(=O)N[C@@H](CC(N)=O)C(=O)N[C@@H](CCCNC(=N)N)C(=O)N[C@@H](CC(C)C)C(=O)N[C@H](C(=O)N[C@H](C(=O)NCC(=O)N[C@@H](CCC(=O)O)C(=O)NCC(=O)N[C@@H](CCC(N)=O)C(=O)N[C@@H](CCC(N)=O)C(=O)N[C@@H](Cc1c[nH]cn1)C(=O)N[C@@H](Cc1c[nH]cn1)C(=O)N[C@@H](CC(C)C)C(=O)NCC(=O)NCC(=O)N[C@@H](C)C(=O)N[C@@H](CCCCN)C(=O)N[C@@H](CCC(N)=O)C(=O)N[C@@H](C)C(=O)NCC(=O)N[C@@H](CC(=O)O)C(=O)N[C@H](C(=O)O)C(C)C)[C@@H](C)CC)[C@@H](C)O)[C@@H](C)CC", "note": "[D1 Peptide] (H-TRWYSMKKTTMKIIPFNRLTIGEGQQHHLGGAKQAGDV-OH)", "values": [{"measurement": "elimination from the blood", "setting": "[1]", "value": "rapidly eliminated"}, {"measurement": "binding to Fragment D1", "setting": "[2]", "value": "no measurable binding"}, {"measurement": "blood concentration causing a 50% increase in thrombin time", "setting": "[3]", "value": "about 4.4×10^-6 M"}, {"measurement": "lag time in the fibrin monomer polymerization", "setting": "[4]", "value": "more than 30 min"}]}]}
